Results taken from patent US7767685B2, “Adenosine A2B receptor antagonists” (King Pharmaceuticals Research and Development, Inc., priority 2006, dated 2010).

Tests used:
[1] = target: T1, human A2B adenosine receptors (Homo sapiens, UniProt P29275); experiment: Displacement of [3H]MRE2029F20 binding at human A2B adenosine receptors; conditions: [3H]MRE2029F20 displacement, human A2B receptors (footnote: HEK293 cells; method: CHO cells), n = 3-6; geometric mean (95% confidence limits); read-out: Ki hA2B
T1 construct: expressed in transfected cells; host or cells: CHO cells (whole cells)
T1 sequence (P29275 1-332): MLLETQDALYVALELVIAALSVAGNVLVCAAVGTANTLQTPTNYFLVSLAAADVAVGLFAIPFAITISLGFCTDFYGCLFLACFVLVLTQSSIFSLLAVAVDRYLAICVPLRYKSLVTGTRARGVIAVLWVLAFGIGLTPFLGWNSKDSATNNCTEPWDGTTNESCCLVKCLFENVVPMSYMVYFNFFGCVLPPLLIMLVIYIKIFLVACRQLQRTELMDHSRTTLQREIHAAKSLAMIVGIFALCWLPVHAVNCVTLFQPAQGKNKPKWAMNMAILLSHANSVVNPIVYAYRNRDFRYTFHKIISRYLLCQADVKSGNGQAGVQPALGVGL
Procedure: […] (Naunyn-Schmied. Arch Pharm. 1998, 357: 1-9). Briefly, the cells are grown adherently and maintained in Dulbecco's Modified Eagles Medium with nutrient mixture F12 (DMEM/F12) without nucleosides, containing 10% fetal calf serum, penicillin (100 U/mL), streptomycin (100 μg/mL), L-glutamine (2 mM) and Geneticin (G418, 0.2 mg/ml) at 37° C. in 5% CO2/95% air. For membrane preparation the culture medium is removed and the cells are washed with phosphate-buffered saline and scraped off T75 flasks in ice-cold hypo tonic buffer (5 mM Tris HCl, 1 mM EDTA, pH 7.4). The cell suspension is homogenized with Polytron, the homogenate is spun for 10 min at 1000×g and the supernatant is then centrifuged for 30 min at 100,000×g. The membrane pellet is suspended in 50 mM Tris HCl buffer (pH 7.4) for A1 adenosine receptors, in 50 mM Tris HCl, 10 mM MgCl2 (pH 7.4) for A2A adenosine receptors, in 50 mM Tris HCl, 10 mM MgCl2, 1 mM EDTA (pH 7.4) for A2B and A3 adenosine receptors.
All new synthesized compounds have been tested to evaluate their affinity to human A1, A2A, A2B and A3 adenosine receptors. […] Pharmacol., 2000, 57: 968-975). Non-specific binding is determined in the presence of 10 μM of CHA and this is always ≦10% of the total binding. […] recombinant A2A adenosine receptors is performed using a suspension of membranes (50 μg of protein/assay) and at least 6-8 different concentrations of studied antagonists for an incubation time of 60 min at 4° C. Non-specific binding is determined in the presence of 1 μM ZM 241385 and is about 20% of total binding. […] Non-specific binding is defined as binding in the presence of 1 μM MRE 3029F20 and is about 25% of total binding. […] Non-specific binding is defined as binding in the presence of 1 μM MRE 3008F20 and is about 25% of total binding. Bound and free radioactivity are separated by filtering the assay mixture through Whatman GF/B glass fiber filters using a Micro-Mate 196 cell harvester (Packard Instrument Co.). The filter bound radioactivity is counted on a Top Count (efficiency 57%) with Micro-Scint 20.
(§1) The protein concentration is determined according to a Bio-Rad method (Bradford, Anal Biochem. 1976, 72: 248-254) with bovine albumin as a standard reference. Inhibitory binding constant, Ki, values are calculated from those of IC50 according to Cheng & Prusoff equation (Biochem. Pharmacol 1973, 22: 3099-3108): Ki=IC50/(1+[C*]/KD*) where [C*] is the concentration of the radioligand and KD* its dissociation constant. A weighted non linear least-squares curve fitting program LIGAND (Munson et al., Anal. Biochem 1980, 107: 220-239) is used for computer analysis of inhibition experiments Data are expressed as geometric mean with 95% confidence limits in parentheses. Examples of Animal Models

[2] = target: T1, human A2B adenosine receptors; experiment: cAMP assay in CHO cells expressing human A2B adenosine receptors (antagonism of NECA-induced cAMP); assay type: cell-based; conditions: antagonism of NECA (100 nM)-induced cAMP, geometric mean (95% confidence limits), read-out: IC50 hA2B (cAMP assay)
Procedure: Measurement of Cyclic AMP Levels in CHO Cells Transfected with Human A2B Adenosine Receptors
CHO cells transfected with human A2B adenosine receptors are washed with phosphate-buffered saline, diluted trypsine and centrifuged for 10 min at 200 g. The pellet containing the CHO cells (1×10^6 cells/assay) is suspended in 0.5 mL of incubation mixture: NaCl 150 mM, KCl 2.7 mM, NaH2PO4 0.37 mM, MgSO4 1 mM, CaCl2 1 mM, Hepes 5 mM, MgCl2 10 mM, glucose 5 mM, pH 7.4 at 37° C. Then 2.0 IU/mL adenosine deaminase and 0.5 mM 4-(3-butoxy-4-methoxybenzyl)-2-imidazolidinone (Ro 20-1724) as phosphodiesterase inhibitor are added and preincubated for 10 min a shaking bath at 37° C. The potency of antagonists studied are determined by antagonism of NECA (100 nM)-induced stimulation of cyclic AMP levels. The reaction is terminated by the addition of cold 6% thrichloroacetic acid (TCA). The TCA suspension is centrifuged at 2000 g for 10 min at 4° C. and the supernatant is extracted four times with water saturated diethyl ether. The final aqueous solution is tested for cyclic AMP levels by a competition protein binding assay. Samples of cyclic AMP standard ([…]) are added to each test tube containing the incubation buffer (trizma base 0.1 M, aminophylline 8.0 mM, 2-mercaptoethanol 6.0 mM (pH 7.4) and [^3H]cyclic AMP in a total volume of 0.5 mL. The binding protein previously prepared from beef adrenals, is added to the samples previously incubated at 4° C. for 150 min, and after the addition of charcoal are centrifuged at 2000 g for 10 min. The clear supernatant is counted with 4 mL of Atomlight liquid scintillator and counted in a Tri Carb Packard 2500 TR scintillation counter.
as §1

[3] = target: T2, human A1 adenosine receptors (Homo sapiens, UniProt P30542); experiment: Displacement of [3H]DPCPX binding at human A1 adenosine receptors expressed in CHO cells; conditions: [3H]DPCPX displacement, n = 3-6, geometric mean (95% confidence limits), read-out: Ki hA1
T2 construct: expressed in transfected cells; host or cells: CHO cells (membranes)
T2 sequence (P30542 1-326): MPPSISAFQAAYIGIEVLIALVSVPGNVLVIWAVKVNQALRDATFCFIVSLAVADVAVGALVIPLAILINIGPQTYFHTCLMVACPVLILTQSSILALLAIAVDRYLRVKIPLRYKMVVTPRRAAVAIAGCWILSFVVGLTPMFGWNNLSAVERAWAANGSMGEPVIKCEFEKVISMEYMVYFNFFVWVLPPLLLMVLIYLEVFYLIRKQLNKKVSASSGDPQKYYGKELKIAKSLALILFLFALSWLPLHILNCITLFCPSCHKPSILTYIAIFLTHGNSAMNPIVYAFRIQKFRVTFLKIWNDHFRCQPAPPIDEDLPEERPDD
Procedure: (§2) The human adenosine receptors have been transfected in CHO cells according with the method previously described by Klotz et al. (Naunyn-Schmied. Arch Pharm. 1998, 357: 1-9). Briefly, the cells are grown adherently and maintained in Dulbecco's Modified Eagles Medium with nutrient mixture F12 (DMEM/F12) without nucleosides, containing 10% fetal calf serum, penicillin (100 U/mL), streptomycin (100 μg/mL), L-glutamine (2 mM) and Geneticin (G418, 0.2 mg/ml) at 37° C. in 5% CO2/95% air. For membrane preparation the culture medium is removed and the cells are washed with phosphate-buffered saline and scraped off T75 flasks in ice-cold hypo tonic buffer (5 mM Tris HCl, 1 mM EDTA, pH 7.4). The cell suspension is homogenized with Polytron, the homogenate is spun for 10 min at 1000×g and the supernatant is then centrifuged for 30 min at 100,000×g. The membrane pellet is suspended in 50 mM Tris HCl buffer (pH 7.4) for A1 adenosine receptors, in 50 mM Tris HCl, 10 mM MgCl2 (pH 7.4) for A2A adenosine receptors, in 50 mM Tris HCl, 10 mM MgCl2, 1 mM EDTA (pH 7.4) for A2B and A3 adenosine receptors.
(§3) All new synthesized compounds have been tested to evaluate their affinity to human A1, A2A, A2B and A3 adenosine receptors. Displacement experiments of [^3H]-DPCPX to CHO cells transfected with the human recombinant A1 adenosine receptors are performed for 120 min at 25° C. incubating diluted membranes (50 μg of protein/assay) and at least 6-8 different concentrations of examined antagonists (Varani et al., Mol. Pharmacol., 2000, 57: 968-975). Non-specific binding is determined in the presence of 10 μM of CHA and this is always ≦10% of the total binding. Binding of [^3H]-ZM 241385 to CHO cells transfected with the human recombinant A2A adenosine receptors is performed using a suspension of membranes (50 μg of protein/assay) and at least 6-8 different concentrations of studied antagonists for an incubation time of 60 min at 4° C. Non-specific binding is determined in the presence of 1 μM ZM 241385 and is about 20% of total binding. Competition binding experiments of [^3H]-MRE 2029F20 to CHO cells transfected with the human recombinant A2B adenosine receptors are carried out incubating for 120 min at 4° C. diluted membranes (50 μg of protein/assay) and at least 6-8 different concentrations of examined compounds. Non-specific binding is defined as binding in the presence of 1 μM MRE 3029F20 and is about 25% of total binding. Competition binding experiments of [^3H]-MRE 3008F20 to CHO cells transfected with the human recombinant A3 adenosine receptors^5 are carried out incubating for 120 min at 4° C. diluted membranes (50 μg of protein/assay) and at least 6-8 different concentrations of examined ligands. Non-specific binding is defined as binding in the presence of 1 μM MRE 3008F20 and is about 25% of total binding. Bound and free radioactivity are separated by filtering the assay mixture through Whatman GF/B glass fiber filters using a Micro-Mate 196 cell harvester (Packard Instrument Co.). The filter bound radioactivity is counted on a Top Count (efficiency 57%) with Micro-Scint 20.
as §1

[4] = target: T3, human A2A adenosine receptors (Homo sapiens, UniProt P29274); experiment: Displacement of [3H]ZM241385 binding at human A2A adenosine receptors expressed in CHO cells; conditions: [3H]ZM241385 displacement, n = 3-6, geometric mean (95% confidence limits), read-out: Ki hA2A
T3 construct: expressed in transfected cells; host or cells: CHO cells (membranes)
Procedure: as §2, §3, §1

T3 sequence (P29274 whole entry): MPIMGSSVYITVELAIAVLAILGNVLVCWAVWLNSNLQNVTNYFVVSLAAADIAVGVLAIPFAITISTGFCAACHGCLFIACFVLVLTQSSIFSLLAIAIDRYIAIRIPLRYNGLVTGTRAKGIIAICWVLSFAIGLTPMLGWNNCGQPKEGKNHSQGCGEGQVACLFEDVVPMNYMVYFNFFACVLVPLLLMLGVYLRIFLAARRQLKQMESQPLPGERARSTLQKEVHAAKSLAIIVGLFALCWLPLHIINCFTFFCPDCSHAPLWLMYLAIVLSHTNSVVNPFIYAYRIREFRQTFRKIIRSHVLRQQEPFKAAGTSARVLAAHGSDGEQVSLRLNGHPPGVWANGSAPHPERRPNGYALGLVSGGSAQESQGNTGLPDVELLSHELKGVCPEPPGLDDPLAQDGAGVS

CCCn1c(=O)c2[nH]c(-c3cc(C)n(CC(=O)Nc4ccc(Cl)cc4)n3)nc2n(CCC)c1=O [Example 4, 2-[3-(2,6-Dioxo-1,3-dipropyl-2,3,6,7-tetrahydro-1H-purin-8-yl)-5-methyl-pyrazol-1-yl]-N-(4-chlorophenyl)-acetamide]
Ki [1]: 0.007 µM | IC50 [2]: 0.043 µM | melting point: 261 to 265 °C

CCCn1c(=O)c2[nH]c(-c3cc(C)n(CC(=O)Nc4cccc5ccccc45)n3)nc2n(CCC)c1=O [Example 13, 2-[3-(2,6-Dioxo-1,3-dipropyl-2,3,6,7-tetrahydro-1H-purin-8-yl)-5-methyl-pyrazol-1-yl]-N-(naphthalen-1-yl)-acetamide]
Ki [3]: > 1 µM | Ki [4]: > 1 µM | IC50 [2]: > 1 µM | melting point: > 300 °C

CCCn1c(=O)c2[nH]c(-c3cc(C)n(CC(=O)Nc4ccc(N(C)C)cc4)n3)nc2n(CCC)c1=O [Example 11, 2-[3-(2,6-Dioxo-1,3-dipropyl-2,3,6,7-tetrahydro-1H-purin-8-yl)-5-methyl-pyrazol-1-yl]-N-(4-dimethylaminophenyl)-acetamide]
Ki [3]: > 1 µM | Ki [4]: > 1 µM | IC50 [2]: > 1 µM | melting point: > 300 °C

CCCn1c(=O)c2[nH]c(-c3nn(CC(=O)Nc4ccc(Cl)cc4)c(C)c3I)nc2n(CCC)c1=O [Example 20, 2-[4-Iodo-3-(2,6-dioxo-1,3-dipropyl-2,3,6,7-tetrahydro-1H-purin-8-yl)-5-methyl-pyrazol-1-yl]-N-(4-chlorophenyl)-acetamide]
Ki [3]: > 1 µM | Ki [4]: > 1 µM | IC50 [2]: > 1 µM | melting point: 296 to 297 °C

CCCn1c(=O)c2[nH]c(-c3cc(CC)n(CC(=O)Nc4ccc(Cl)cc4)n3)nc2n(CCC)c1=O [Example 9]
Ki [3]: > 1 µM | Ki [4]: > 1 µM | IC50 [2]: > 1 µM | melting point: 256 to 257 °C

CCCn1c(=O)c2[nH]c(-c3cc(C)n(CC(=O)Nc4ccc(Br)cc4)n3)nc2n(CCC)c1=O [Example 3, 2-[3-(2,6-Dioxo-1,3-dipropyl-2,3,6,7-tetrahydro-1H-purin-8-yl)-5-methyl-pyrazol-1-yl]-N-(4-bromophenyl)acetamide]
Ki [1]: 0.035 µM | IC50 [2]: 0.156 µM | melting point: 270 to 273 °C
